The conditions of data set [1]: Rabbit, 0.5% 50 microL, 250 micro g, Sigurdsson et al (2007); cited from earlier work.
A short description of data set [2]: Solubility of AMD101 in H2O. Type of data set: physicochemical. Particulars: water. The method, then: In H2O, the AMD101 can dissolve at approximately 1.4 mg/ml only. However, the concentration was increased as provided herein employing suitable excipients. Those formulations are stable for weeks.
Data set [3] is described as follows: Retina exposure of rifampicin after topical eye drops (3 or 10 drops), LC/MS. It is filed as in vivo, Sprague-Dawley rats. As to conditions: Rat, 0.25%. The method, then: The remaining two rats received the same applications, but 10 drops, to each eye under isoflurane sedation. A single drop contained 5 micro L of the formulation, and applications of each drop had 30 min interval. After the eye drop application, retinas were extracted under a dissection microscope. In addition, “Non-treatment” negative control was taken, and retina was extracted from two rats without any treatment. Retinas were placed in a 1.5 ml microcentrifuge tubes (1 retina/tube), and they were extensively washed by DPBS. After the washing procedure, retina tissue in a microcentrifuge tube was frozen in dry ice, and it was stored for quantification by LC/MS analysis.

Data set [4] can be described thus: Retina exposure of rifampicin after subcutaneous injection, LC/MS. As to conditions: male, Sprague-Dawley, rat, SC injection 20 mg/Kg (Example 6A), n = 4. It is filed as in vivo, Sprague-Dawley rats. The method, then:
At time points of 1 hr, 3 hr, and 7 hr after the SC injection, retina tissues were extracted from the rats under a dissection microscope. In addition, “Non-treatment” negative control was taken, and retina was extracted from two rats without any treatment. Retinas were placed in a 1.5 ml microcentrifuge tubes (1 retina/tube), and they were extensively washed by DPBS. After the washing procedure, retina tissue in a microcentrifuge tube was frozen in dry ice, and it was stored for quantification by LC/MS analysis. […] Amounts detected in retina by the SC injection were equivalent to those delivered by the eye drop application (See Table 3).

Data set [5] can be described thus: PK study, retina exposure after 0.25% rifampicin eye drop, LC/MS. Type of data set: in vivo, Sprague-Dawley rats. As to conditions: male, Sprague-Dawley, 37.5 micro gram, rat. The method, then:
15 microL of an eye drop formulation which is presented as Example 1A listed in Table 1 was used to dose the compound to a single eye of a rat. […] At time points of 1 hr, 3 hr, and 7 hr after the eye drop application, retina tissues were extracted from the rats under a dissection microscope. In addition, “Non-treatment” negative control was taken, and retina was extracted from a single rat without any treatment. Retinas were placed in a 1.5 ml microcentrifuge tubes (1 retina/tube), and they were extensively washed by DPBS. After the washing procedure, retina tissue in a microcentrifuge tube was frozen in dry ice, and it was stored for quantification by LC/MS analysis.

A short description of data set [6]: Dose-response study, retina exposure after 0.25% and 0.5% rifampicin eye drops, LC/MS. It is filed as in vivo, Sprague-Dawley rats. Particulars: male, Sprague-Dawley, rat, topical. The method, then: 15 microL of eye drop formulations which are presented as Example 1A and 6A listed in Table 1 and Table 2, respectively, were used to dose the compound to a single eye of a rat. […] In 1 hr after the eye drop application, retina tissues were extracted from the rats under a dissection microscope. In addition, “Non-treatment” negative control was taken, and retina was extracted from a single rat without any treatment. Retinas were placed in a 1.5 ml microcentrifuge tubes (1 retina/tube), and they were extensively washed by DPBS. After the washing procedure, retina tissue in a microcentrifuge tube was frozen in dry ice, and it was stored for quantification by LC/MS analysis.

SMILES strings stand for the structures. In brackets after ≈: the same amount, converted by molar mass. Read-outs that look alike come from different tables or passages of the source.

As a reminder, the solubility is the dissolved amount per volume that the medium holds. The low end stands for little dissolved substance, the high end for much dissolved substance. A word on the Tmax: it is the time from dosing to the highest level.

For the compound `C[C@@H]1C[C@H]2[C@@H]3CCC4=CC(=O)C=C[C@]4(C)[C@@]3(F)[C@@H](O)C[C@]2(C)[C@@]1(O)C(=O)CO` [Dexamethasone], in data set [1], the “Drug amount detected in retina” value is ~33 ng/g retina ng/g retina tissue.

In data set [2], `CO[C@H]1/C=C/O[C@@]2(C)Oc3c(C)c(O)c4c(O)c(c(/C=N/N5CCN(C)CC5)c(O)c4c3C2=O)NC(=O)/C(C)=C\C=C\[C@H](C)[C@H](O)[C@@H](C)[C@@H](O)[C@@H](C)[C@H](OC(C)=O)[C@@H]1C` [Rifampicin] registered a solubility of about 1400 µg/mL (≈ 1700 µM). Also, the “Drug amount detected in retina” value in data set [3] (3 drops (15 microL, 37.5 micro g)) is ~1,288 ng/g retina ng/g retina tissue; in data set [3] (10 drops (50 microL, 125 micro g)) it was ~2,939 ng/g retina ng/g retina tissue. The concentration at 1 hr in data set [4] (1 hr) is 2660 ng/g; in data set [5] (topical, 0.25% eye drop 15 microL (Example 1A), 1 hr, n = 4), 1580 ng/g; in data set [6] (37.5 micro gram) it was 1580 ng/g; in data set [6] (75 micro gram) it was 6070 ng/g. The concentration at 3 hr came out at 3860 ng/g in data set [4] (3 hr) and 1150 ng/g in data set [5] (topical, 0.25% eye drop 15 microL (Example 1A), 3 hr, n = 4). Besides, the concentration at 7 hr in data set [4] (7 hr) is 2520 ng/g; in data set [5] (topical, 0.25% eye drop 15 microL (Example 1A), 7 hr, n = 4), 104 ng/g. For the same compound, the Tmax in data set [5] (topical or ocular, 0.25% eye drop 15 microL) was about 1 h.

(Values after patent US11850213B2, “Ophthalmic compositions of rifamycins and uses thereof” (AMD THERAPEUTICS LLC, priority 2014, dated 2023).)
